Data published in patent US7700584B2 (Hangzhou Minsheng Pharmaceuticals Co., Ltd., priority 2004, dated 2010).
Structures can show the parent of a compound that is named as a salt. Where two headings read alike, the source gives them in different places.

How the values were obtained:
[1] = tested on: SMMC-7721 human hepatic carcinoma; assay: In vitro inhibition rate to tumor cells (MTT), SMMC-7721; type: cell-based; settings: for inhibition at 50 µg/mL: Homo sapiens, SMMC-7721, 50 μg/ml, read-out: inhibition rate, Results (%) SMMC-7721
[2] = tested on: MCF-7 human mammary adenocarcinoma; assay: In vitro inhibition rate to tumor cells (MTT), MCF-7; type: cell-based; settings: Homo sapiens, MCF7, 50 μg/ml, read-out: inhibition rate, Results (%) MCF-7
[3] = tested on: LLC mouse Lewis lung carcinoma; assay: In vitro inhibition rate to tumor cells (MTT), LLC; type: cell-based; settings: 50 μg/ml; for inhibition at 50 µg/mL: Mus musculus, Lewis lung carcinoma
[4] = tested on: U-937 human histocytic lymphoma; assay: In vitro inhibition rate to tumor cells (MTT), U-937; type: cell-based; settings: for inhibition rate, Results (%) U-937: 50 μg/ml; for inhibition at 50 µg/mL: Homo sapiens, U-937, 50 μg/ml, read-out: inhibition rate, Results (%) U-937
[5] = tested on: HL-60 human promyelocytic leukemia; assay: In vitro inhibition rate to tumor cells (MTT), HL-60; type: cell-based; settings: for inhibition rate, Results (%) HL-60: 50 μg/ml; for inhibition at 50 µg/mL: Homo sapiens, HL-60, 50 μg/ml, read-out: inhibition rate, Results (%) HL-60
[6] = tested on: A-549 human lung adenocarcinoma; assay: In vitro inhibition rate to tumor cells (MTT), A-549; type: cell-based; settings: for inhibition at 50 µg/mL: Homo sapiens, A549, 50 μg/ml, read-out: inhibition rate, Results (%) A-549
[7] = tested on: Hela human cervical carcinoma; assay: In vitro inhibition rate to tumor cells (MTT), Hela; type: cell-based; settings: Homo sapiens, HeLa, 50 μg/ml, read-out: inhibition rate, Results (%) Hela
[8] = tested on: Bel-7402 human hepatic carcinoma; assay: In vitro inhibition rate to tumor cells (MTT), Bel-7402; type: cell-based; settings: for inhibition rate, Results (%) Bel-7402: 50 μg/ml; for inhibition at 50 µg/mL: Homo sapiens, Bel-7402, 50 μg/ml, read-out: inhibition rate, Results (%) Bel-7402
[9] = target: T1, HIV-1 proteinase (HIV-1 PR) (Human immunodeficiency virus type 1 group M subtype B, UniProt P04585); assay: Screening for in vitro activity against HIV-1 proteinase; type: biochemical
T1 construct: HIV-1 proteinase digests the fluorescent-labeled substrate; purchased
Procedure: Principle of the test: HIV-1 proteinase digests the fluorescent-labeled substrate in an optimal reaction condition and system. The activity of the enzyme can be reflected by the fluorescent intensity in the product of the enzyme reaction. Adding a sample into the reaction system can be used for screening the inhibitor of the enzyme.
1. HIV-1 PR: commercially available, stored at −85° C.
2. Treatment of the samples: Before use, sample was dissolved in DMSO at a suitable concentration, then serially diluted (5×) with double distilled water, five serial dilutions per sample.
3. Positive control: indinavir, purchased from […].
4. Methods: The diluted sample was added into the reaction buffer containing the fluorescent-labeled substrate. Then the genetic engineered target enzyme was added, and incubated in the optimal reaction condition. The fluorescent value was measured with a FLUO star Galaxy luminoscope.

[10] = tested on: MDCK (dog kidney) cells; assay: Toxicity TC50 of the samples in MDCK cells (influenza screening); settings: concentration of 50% toxicity, given as dilution of the stock solution
[11] = target: T2, HIV-1 integrase (HIV-1 IN) (Human immunodeficiency virus type 1 group M subtype B, UniProt P04585); assay: Screening for the activity against HIV-1 integrase; type: biochemical
T2 construct: a purified HIV-1 integrase was added into each well; purchased
Procedure: Principle of the test: A synthetic oligonucleotide of 30 nt was used as the donor substrate. A synthetic oligonucleotide of 20 nt was used as the target substrate. A 96-well plate was covered by the donor substrate, and a purified HIV-1 integrase was added into each well. ELISA was performed to measure the product of the target DNA chain transfer. A biotin-labeled alkali phosphatase was used to visual the system. OD value was measured by an Enzyme-linked Detector. Add a sample into the reaction system for screening the inhibitor of the enzyme.
1. HIV-1 IN: commercially available.
2. Treatment of the samples: Before use, the sample was dissolved in water or DMSO at a suitable concentration, then serially diluted (5×), four serial dilutions per sample. The stock solutions of two samples were 100-fold diluted with DMSO, then 5-fold diluted, four serial dilutions per sample. Positive control: S-y, provided by Shanghai Organic Chemistry Institute.
3. The donor substrate and target substrate: synthesized by Shanghai Biological Engineering Company (Shanghai Shenggong).
4. Methods: The diluted sample was added into a 96-well plate covered by the donor substrate, and then added into the reaction buffer containing the genetic engineered target enzyme and biotin-target substrate, incubated in the optimal reaction conditions. A biotin-labeled alkali phosphatase was used to visual the system to determine the absorbance at 450 nm (OD450).

[12] = tested on: HepG2 cells; assay: Cell status of HepG2 cells treated with sample (HBV screening); type: cell-based; settings: 200 μg/ml, HepG2, four days after infection
[13] = target: T3, HIV-1 reverse transcriptase (Human immunodeficiency virus type 1 group M subtype B, UniProt P04585); assay: Screening for the in vitro activity against the HIV-1 reverse transcriptase; type: biochemical
T3 construct: purchased
Procedure: Principle of the test: The template to which the HIV-1 reverse transcriptase interacts was covered onto the enzyme-lined template. In the optimal reaction conditions and system, HIV-1 RT will put the substrate comprising Biotin-dUTP onto the reaction template. The activity of the enzyme was measured as the amount of the integrating Biotin-dUTP in the reaction by using streptavidin-labeled horseradish peroxidase. Adding the sample to the reaction system can identify inhibitor of the enzyme.
1. HIV-1 RT: commercially available.
2. Treatment of the samples: Before use, the sample was dissolved in DMSO at a suitable concentration, then serially diluted (5×) with double distilled water, five serial dilutions per sample.
4. Methods: The diluted sample was added into the reaction buffer containing Biotin-dUTP and the genetic engineered target enzyme, and incubated in the optimal reaction conditions. A streptavidin-labeled horseradish peroxidase was added to visual the system, and OD450 was measured.

[14] = tested on: Hepatitis B virus (HBV); type: cell-based

Q: Which melting point does the source give for `CC(C)C1CC23OC1(O)CC(=CN1CCNCC1)C2CCC3C` (centres unmarked) (as salt: hydrochloride) [Compound 8, Curcumol piperazine hydrochloride] here?
A: The melting point was 150 to 152 °C.

Q: Which melting point does the source give for `CC(C)C1CC23OC1(O)C/C(=C\NC(C)(C)C)C2CCC3C` (centres unmarked) [Compound 15, Curcumol t-butyl amine] here?
A: Its melting point is 79 to 80 °C.

Q: What about the “inhibition rate, Results (%) SMMC-7721” value ([1]; 50 μg/ml, Table 2 (repeated screening)) of the same compound?
A: The value was −8.60%.

Q: What about the inhibition at 50 µg/mL ([1]; Table 1) of the same compound?
A: Its inhibition at 50 µg/mL is -2.5%.

Q: What about the inhibition at 50 µg/mL ([2]; Table 1) of the same compound?
A: The inhibition at 50 µg/mL was 65.3%.

Q: What about the inhibition at 50 µg/mL ([2]; Table 2 (repeated screening)) of the same compound?
A: The inhibition at 50 µg/mL was 60.1%.

Q: And the “inhibition rate, Results (%) LLC” value ([3]; Table 1)?
A: The value was −11.83%.

Q: What about the “inhibition rate, Results (%) LLC” value ([3]; Table 2 (repeated screening)) of the same compound?
A: Its value is −10.12%.

Q: What about the “inhibition rate, Results (%) U-937” value ([4]; Table 1) of the same compound?
A: Its value is 57.32%.

Q: And the “inhibition rate, Results (%) U-937” value ([4]; Table 2 (repeated screening))?
A: The value was 50.12%.

Q: And the “inhibition rate, Results (%) HL-60” value ([5]; Table 1)?
A: Its value is 8.23%.

Q: And the “inhibition rate, Results (%) HL-60” value ([5]; Table 2 (repeated screening))?
A: The value was 2.98%.

Q: What about the “inhibition rate, Results (%) A-549” value ([6]; 50 μg/ml, Table 1) of the same compound?
A: The value was 17.43%.

Q: And the inhibition at 50 µg/mL ([6]; Table 2 (repeated screening))?
A: Its inhibition at 50 µg/mL is 12.3%.

Q: And the inhibition at 50 µg/mL ([7]; Table 1)?
A: Its inhibition at 50 µg/mL is 70%.

Q: What about the inhibition at 50 µg/mL ([7]; Table 2 (repeated screening)) of the same compound?
A: The inhibition at 50 µg/mL was 71.4%.

Q: And the “inhibition rate, Results (%) Bel-7402” value ([8]; Table 1)?
A: Its value is 32.98%.

Q: What about the “inhibition rate, Results (%) Bel-7402” value ([8]; Table 2 (repeated screening)) of the same compound?
A: The value was 31.20%.

Q: With `C=C1CC2(OC(=O)CCC)OC3(CC2C(C)C)C(C)CCC13` (centres unmarked) [Compound 2, Curcumol butyrate] as the compound, how does the inhibition at 50 µg/mL ([1]; Table 1) read?
A: Its inhibition at 50 µg/mL is 12.3%.

Q: And the inhibition at 50 µg/mL ([1]; Table 2 (repeated screening))?
A: The inhibition at 50 µg/mL was 14.7%.

Q: And the inhibition at 50 µg/mL ([2]; Table 1)?
A: Its inhibition at 50 µg/mL is 46%.

Q: What about the inhibition at 50 µg/mL ([2]; Table 2 (repeated screening)) of the same compound?
A: The inhibition at 50 µg/mL was 41.8%.

Q: And the inhibition at 50 µg/mL ([3]; Table 1)?
A: Its inhibition at 50 µg/mL is 2.98%.

Q: And the inhibition at 50 µg/mL ([3]; Table 2 (repeated screening))?
A: The inhibition at 50 µg/mL was 0.32%.

Q: And the inhibition at 0.08 µg/mL ([9]; 0.08 μg/ml, read-out: Inhibition rate)?
A: Its inhibition at 0.08 µg/mL is 4.13%.

Q: And the inhibition at 0.4 µg/mL ([9]; 0.40 μg/ml, read-out: Inhibition rate)?
A: The inhibition at 0.4 µg/mL was 8.64%.

Q: What about the inhibition at 2 µg/mL ([9]; 2.0 μg/ml, read-out: Inhibition rate) of the same compound?
A: Its inhibition at 2 µg/mL is 2.98%.

Q: And the inhibition at 10 µg/mL ([9]; 10 μg/ml, read-out: Inhibition rate)?
A: The inhibition at 10 µg/mL was 12.2%.

Q: What about the IC50 ([9]; IC50, five 5× serial dilutions from 50 μg/ml) of the same compound?
A: The IC50 was over 163 µM.

Q: And the inhibition at 50 µg/mL ([9]; read-out: Inhibition rate, 50 μg/ml)?
A: The inhibition at 50 µg/mL was 12.7%.

Q: And the inhibition at 50 µg/mL ([4]; Table 1)?
A: Its inhibition at 50 µg/mL is 71.2%.

Q: And the inhibition at 50 µg/mL ([4]; Table 2 (repeated screening))?
A: The inhibition at 50 µg/mL was 70.3%.

Q: And the TC50 [10]?
A: Its TC50 is 1/12150 of the stock solution.

Q: What about the IC50 [11] of the same compound?
A: The IC50 was 116 µM.

Q: And the inhibition at 50 µg/mL ([5]; Table 1)?
A: Its inhibition at 50 µg/mL is 12.3%.

Q: What about the inhibition at 50 µg/mL ([5]; Table 2 (repeated screening)) of the same compound?
A: The inhibition at 50 µg/mL was 18%.

Q: And the Cell status [12]?
A: The Cell status was “Normal”.

Q: And the “inhibition rate of HIV-1 reverse transcriptase” value ([13]; 120 ug/ml)?
A: Its value is 60%.

Q: What about the IC50 ([13]; IC50, initial concentration 1/150 of the stock solution) of the same compound?
A: Its IC50 is under 392 µM.

Q: And the inhibition at 50 µg/mL ([6]; Table 1)?
A: The inhibition at 50 µg/mL was 4.93%.

Q: What about the inhibition at 50 µg/mL ([6]; Table 2 (repeated screening)) of the same compound?
A: Its inhibition at 50 µg/mL is 9.23%.

Q: And the “(Value of the positive control - Measured Value) Value of the positive control × 100%” value ([14]; 200 μg/ml, decrease of HBeAg relative to positive control)?
A: The value was 68.34%.

Q: What about the “OD450 of HBeAg” value ([14]; 200 μg/ml, supernatant four days after infection, positive control 1.917, negative 0.057) of the same compound?
A: Its value is 0.607.

Q: What about the “activity against HBV (in words)” value ([14]; primary screening, HBV e antigen, HepG2, 13 samples) of the same compound?
A: Its value is “had the activity against HBV”.

Q: What about the inhibition at 50 µg/mL ([7]; Table 1) of the same compound?
A: The inhibition at 50 µg/mL was 70.6%.

Q: And the inhibition at 50 µg/mL ([7]; Table 2 (repeated screening))?
A: Its inhibition at 50 µg/mL is 75.2%.

Q: What about the inhibition at 50 µg/mL ([8]; Table 1) of the same compound?
A: Its inhibition at 50 µg/mL is 23.3%.

Q: And the inhibition at 50 µg/mL ([8]; Table 2 (repeated screening))?
A: Its inhibition at 50 µg/mL is 12.8%.

Q: Which melting point does the source give for `CC(C)C1CC23OC1(O)C/C(=C\Nc1ccc(O)cc1)C2CCC3C` (centres unmarked) (as salt: hydrochloride) [Compound 6, Curcumol p-hydroxy aniline hydrochloride] here?
A: The melting point was 147.5 to 149.5 °C.

Q: Which melting point does the source give for `CC(C)C1CC23OC1(O)C/C(=C\NC(C)(C)C)C2CCC3C` (centres unmarked) (as salt: hydrochloride) [Compound 16, Curcumol t-butyl amine hydrochloride] here?
A: Its melting point is 115 to 116 °C.
